The source of these data is US11938128B2, “Small molecule BAX inhibitors and uses thereof” (Albert Einstein College of Medicine, priority 2017, dated 2024).

Data set [1] deals with BAX (Homo sapiens, UniProt Q07812). The experiment in a line: liposome release assay, tBID-induced BAX activation in liposomal membranes. The format is biochemical. The text has this:
FIG. 8. BAI compounds tested in BAX inhibition assay using tBID-induced BAX activation in liposomal membranes.
These compounds were hypothesized, but never shown, to work through BAX inhibition (19, 20). Accordingly, it was first investigated whether several of these small molecules inhibit BAX-mediated permeabilization of artificial membranes of similar lipid composition to the outer mitochondrial membrane (OMM). A liposome release assay (21), in which liposomes that contain a fluorophore are created, was used. Incorporation of tBID-activated BAX into the liposome membrane stimulates release of the fluorophore, providing a system to study BAX-mediated membrane permeabilization in isolation of other mitochondrial and cellular factors.
IC50 were predicted based on of “Normalized inhibition values” correlated with measured IC50 values.

Data set [2] has as its system Adult rat cardiomyocytes. The experiment in a line: hypoxia/reoxygenation-induced death of adult cardiomyocytes. It is filed as cell-based. The protocol:
(§1) FIG. 6A-6C. […] Cell death was assessed using calcein AM (alive) and ethidium homodimer (dead) staining. (C) BAI1 inhibits hypoxia-induced loss of inner mitochondrial membrane potential (Δψm) in neonatal cardiomyocytes.
FIG. 22A-22B. […] Percentage of dead cells represents percentage of EthD positive cells.

Data set [3] in a line: pharmacokinetics of BAI-A1 in the mouse. The format is in vivo. Particulars: other: injection (type of injection not given), 1 mg/kg. The protocol: Accordingly, the ability of BAI-A1 to inhibit BAX activation during MI/R was tested in vivo (FIG. 7). […] This was assessed following 45 min ischemia/6 h reperfusion, the time point that BAX is activated maximally in the absence of drug. It was concluded that BAI-A1 can access myocardial cells and is effective at inhibiting BAX activation during MI/R in vivo. The pharmacokinetics of BAI-A1 were measured in the mouse by injecting 1 mg/kg into a cohort of mice and harvesting plasma and heart tissue 0, 1, 6, and 24 h.

Data set [4] in a line: pharmacokinetic properties, half-life in plasma. It is filed as in vivo.
Data set [5] addresses recombinant, purified BAX (Homo sapiens, UniProt Q07812). As to the kind of experiment: BAX binding by 1H-NMR and 15N-1H HSQC NMR. Conditions: not shown.
Data set [6] can be described thus: plasma protein binding, mouse plasma. It is filed as in vitro ADME.
Data set [7] has as its target T1, BAX (Mus musculus, UniProt Q07813).
T1 construct: from tissue; host or cells: heart (myocardium) after 45 min ischemia/6 h reperfusion
As to the kind of experiment: BAX activation during MI/R in vivo, 6A7 antibody immunostaining. Conditions: 45 min ischemia/6 h reperfusion, 6A7 immunostaining. The procedure: Accordingly, the ability of BAI-A1 to inhibit BAX activation during MI/R was tested in vivo (FIG. 7). […] The pharmacokinetics of BAI-A1 were measured in the mouse by injecting 1 mg/kg into a cohort of mice and harvesting plasma and heart tissue 0, 1, 6, and 24 h.

Data set [8] concerns neonatal rat cardiomyocytes (NRCM). As to the kind of experiment: hypoxia-induced death of primary neonatal cardiomyocytes (calcein AM / ethidium homodimer). The format is cell-based. Conditions: for inhibition of hypoxia-induced neonatal cardiomyocyte death: percentage of EthD positive cells. The protocol: as §1
FIG. 20A-20B. […] Quantification of percentage of TUNEL positive cells. […] BAI-1 dose response. Percentage of dead cells represents percentage of ethidium homodimer-1 (EthD) positive cells.
FIG. 21A-21C. BAI-A1, BAI-A2 and BAI-A21 inhibit cardiomyocyte necrotic cell death. NRCM were pre-treated with varying concentrations of BAI-A1 (A), BAI-A2 (B) or BAI-A21 (C) and cultured under normoxic or hypoxic conditions. Percentage of dead cells represents percentage of EthD positive cells.

Data set [9] concerns the target T1, BAX. As to the kind of experiment: STS-induced BAX translocation to mitochondria (immunostaining of BAX puncta). It is filed as cell-based. Particulars: data not shown. The protocol:
A key event in BAX activation is exposure of α helix 9 containing a transmembrane domain that inserts tightly into the outer mitochondrial membrane (OMM). BAX insertion into the OMM can be assessed by treating isolated mitochondria with strong alkali, which separates loosely attached proteins from mitochondria but fails to extract membrane-inserted proteins. […] One important result of BAX conformational activation is its translocation from cytosol to mitochondria. […] Translocation was assessed by immunostaining for mitochondrial BAX puncta. […] (Data not shown.)

Data set [10] can be described thus: plasma protein binding, rats. Conditions: rat. It is filed as in vitro ADME.
Data set [11] can be described thus: chronic doxorubicin-induced cardiomyopathy mouse model. Particulars: doxorubicin 3 mg/kg IP x8, inhibitor 2 mg/kg. The format is in vivo. The text has this:
FIG. 25A-25B. […] (A) Hearts were collected from mice in the chronic doxorubicin model and sectioned to stain for the apoptosis marker, TUNEL. Percentage of TUNEL positive nuclei per field. (B) Hearts were collected from mice in the chronic doxorubicin model and sectioned to immunostain for HMGB1, loss of which indicates necrosis. Percentage of nuclei that lost HMGB1 per field.
Patients typically receive several “cycles” of doxorubicin administered at lower doses. The exact protocol depends on the cancer being treated. For example, some leukemias are treated with 4 cycles of 60 mg/m^2 (which would be the equivalent of 1.5 mg/kg) IV administered every 21-28 days. […] Based on this experience, a chronic protocol was used in which mice receive 3 mg/kg doxorubicin IP every other day×8 doses (i.e. over a two-week period) for a cumulative dose of 24 mg/kg.

For data set [12], the system named is mouse embryonic fibroblasts. As to the kind of experiment: apoptosis in mouse embryonic fibroblasts (FIG. 18). It is filed as cell-based. Conditions: doxorubicin-induced per text, STS or ABT-737 per legend. The text has this: FIG. 18. […] Apoptosis was induced with either staurosporine (STS) or pro-apoptotic ABT-737 drug.
For data set [13], the system named is mouse embryonic fibroblasts. As to the kind of experiment: TNFα-induced BAX-mediated apoptotic cell death. Conditions: data not shown. It is filed as cell-based.
Data set [14] is described as follows: acute doxorubicin heart failure model in mice. The format is in vivo, mouse. Conditions: doxorubicin 20 mg/kg i.p. single; inhibitor 2 mg/kg i.p. single.
A short description of data set [15]: BAI-A22 pharmacokinetics in rats, non-compartmental analysis. It is filed as in vivo. Particulars: rat, plasma, iv, male Sprague Dawley rats, 1 mg/kg intravenously, NCA. The procedure: FIG. 11A-11B. BAI-A22 pharmacokinetics. BAI-A22 was injected intravenously in male Sprague Dawley® rats at 1 mg/kg dose and blood plasma and heart tissue were collected at different time points, and drug levels measured by LC-MS/MS. (A) Average BAI-A22 concentrations in blood plasma. (B) Average BAI-A22 concentrations in heart tissue.
Pharmacokinetic parameters from non-compartmental analysis using WinNonLin software. C0: maximum plasma concentration extrapolated to t=0; tmax: time of maximum plasma concentration; t1/2: half-life; MRTlast: mean residence time, calculated to the last observable time point; CL: clearance; Vss: steady state volume of distribution; AUClast: area under the curve, calculated to the last observable time point; AUC∞: area under the curve, extrapolated to infinity. Materials and Methods for the Chemical Syntheses

[16] abbreviates: liposome release, minimum of 4 inhibitor concentrations around the IC50, read-out: Measured IC 50/μM.
Setting [17] is: predicted from normalized inhibition values (5 and 10 μM, normalized to BAI1) correlated with measured IC50 values, read-out: Predicted IC50/μM.

Read-outs that look alike come from different tables or passages of the source.

Sequence of BAX (Homo sapiens, UniProt Q07812) (Q07812 whole entry): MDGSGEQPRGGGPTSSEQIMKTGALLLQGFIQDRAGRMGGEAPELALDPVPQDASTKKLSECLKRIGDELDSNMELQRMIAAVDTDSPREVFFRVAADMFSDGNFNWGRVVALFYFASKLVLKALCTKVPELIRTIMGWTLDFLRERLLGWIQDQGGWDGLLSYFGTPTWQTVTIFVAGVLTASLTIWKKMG
T1 sequence (Q07813 whole entry, the tested form may be a part): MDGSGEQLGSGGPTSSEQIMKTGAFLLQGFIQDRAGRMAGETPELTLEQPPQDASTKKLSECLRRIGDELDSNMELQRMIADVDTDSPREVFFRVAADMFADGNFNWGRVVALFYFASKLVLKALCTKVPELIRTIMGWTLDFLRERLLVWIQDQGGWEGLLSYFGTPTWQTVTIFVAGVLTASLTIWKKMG
Sequence of recombinant, purified BAX (Q07812 whole entry): as the sequence (Q07812 whole entry) above

Consider `OC(CN1CCN(CCCc2ccccc2)CC1)Cn1c2ccc(Br)cc2c2cc(Br)ccc21` (stereo not drawn) [BAI-3], for which, in data set [1] (FIG. 2), the “inhibition of membrane permeabilization induced by tBID-activated BAX” value is given as “not effective to inhibit tBID-induced BAX activation”. Also, the “fluorophore release by compound alone” value in data set [1] (compound alone, without BAX/tBID) was “do not stimulate fluorophore release”.
In the case of `OC(CN1CCNCC1)Cn1c2ccccc2c2ccccc21` (stereo not drawn) [BAI-A1], the “inhibition of adult cardiomyocyte necrosis” value in [2] (hypoxia and reoxygenation (H/R)) is “inhibit necrosis in cardiomyocytes in a dose-dependent manner”. The “ability to protect adult cardiomyocytes against hypoxia/reoxygenation, versus BAI-1” value in data set [2] (not shown) is listed as “only modestly decreased”. In addition, the half-life in data set [3] (heart tissue, read-out: half-life in heart tissue (converted)) is about 3.5 h; in data set [3] (plasma, read-out: half-life in plasma (converted)), about 3.5 h; in data set [4], 3.5 h. In addition, the “BAX binding relative to BAI-1” value in [5] was “less BAX binding than BAI-1”. Also, the fraction unbound in data set [6] was 0.106. Besides, the “BAX conformational activation in vivo” value in data set [7] is given as “potently blocks BAX conformational activation”. The IC50 was 40 µM in data set [1] (setting [16]) and over 20 µM in data set [1] (setting [17]). The “ability to protect neonatal cardiomyocytes against hypoxia, versus BAI-1” value in data set [8] (not shown) is “only modestly decreased”. The “inhibition of hypoxia-induced neonatal cardiomyocyte death” value in [8] is “inhibit necrosis in cardiomyocytes in a dose-dependent manner”.
As for `OCCN(CCO)CC(O)Cn1c2ccc(Cl)cc2c2cc(Cl)ccc21` (stereo not drawn) [BAI-A9], the IC50 in [1] (setting [17]) was 9.7 µM.
In the case of `OCC(O)Cn1c2ccc(Br)cc2c2cc(Br)ccc21` (stereo not drawn) [BAI-A10], the IC50 in data set [1] (setting [17]) was 10.8 µM.
On to `O=C(O)CCn1c2ccc(Br)cc2c2cc(Br)ccc21` [BAI-A11], for which, in data set [1] (setting [17]), the IC50 is 10.4 µM.
Regarding `OCCNCC(O)Cn1c2ccc(Br)cc2c2cc(Br)ccc21` (stereo not drawn) [BAI-A12], the IC50 in data set [1] (setting [17]) was 8.8 µM.
Turning to `CN1CCN(CC(O)CN2c3ccccc3Sc3ccccc32)CC1` (stereo not drawn) [BAI-A13], the IC50 is 13 µM in [1] (setting [16]) and 13.8 µM in [1] (setting [17]).
As for `OCCN(CCO)CC(O)CN1c2ccccc2Sc2ccccc21` (stereo not drawn) [BAI-A14], the IC50 in data set [1] (setting [17]) was 15.3 µM.
With `OCCN1CCN(CCCN2c3ccccc3Sc3ccccc32)CC1` [BAI-A15], the IC50 in data set [1] (setting [16]) was 6 µM; in data set [1] (setting [17]) it was 11.7 µM.
As to `OC(CN1CCNCC1)Cn1c2ccc(F)cc2c2cc(F)ccc21` (stereo not drawn) [BAI-A16], in data set [1] (setting [16]), the IC50 was 18 µM.
With `Cc1ccc2c(c1)c1cc(C)ccc1n2CC(O)CN1CCNCC1` (stereo not drawn) [BAI-A17], the IC50 in data set [1] (setting [16]) is 27 µM.
The same measure, in the same setting: under `OC(CN1CCNCC1)Cn1c2ccc(C(F)(F)F)cc2c2cc(C(F)(F)F)ccc21` (stereo not drawn) [BAI-A18] stands 15 µM.
On to `Cc1ccc(N(CC(O)CN2CCNCC2)c2ccc(C)cc2)cc1` (stereo not drawn) [BAI-A19], for which, in data set [7], the “BAX conformational activation in vivo” value was “inhibition of BAX activation in vivo”. Moreover, the IC50 in data set [1] (setting [16]) stood at 26 µM. The “inhibition of hypoxia-induced neonatal cardiomyocyte death” value in data set [8] is recorded as “potently inhibits primary neonatal cardiomyocyte death induced by hypoxia”.
As to `Cc1cn(CC(O)CN2CCNCC2)c2ccccc12` (stereo not drawn) [BAI-A20], in data set [1] (setting [16]), the IC50 is over 100 µM. For the same compound, the “inhibition of hypoxia-induced neonatal cardiomyocyte death” value in [8] is “does not”.
With `OC(CN1CCNCC1)CN(c1ccc(Br)cc1)c1ccc(Br)cc1` (stereo not drawn) [BAI-A21], the IC50 in data set [1] (setting [16]) is 4.5 µM. Moreover, the “inhibition of hypoxia-induced neonatal cardiomyocyte death” value in data set [8] was “inhibit necrosis in cardiomyocytes in a dose-dependent manner”.
In the case of `OC(CN1CCNCC1)CN(c1ccccc1)c1ccc(Br)cc1` (stereo not drawn) [BAI-A22, 1-((4-bromophenyl)(phenyl)amino)-3-(piperazin-1-yl)propan-2-ol], the “BAX translocation to the mitochondria” value in data set [9] was “A similar result was observed”. Also, in data set [10], the fraction unbound was 0.044. For the same compound, the “cardiac dysfunction (fractional shortening, ejection fraction, systolic wall thickening)” value in data set [11] is listed as “significantly protected the heart from cardiac dysfunction”. Also, the half-life in data set [4] was 5 h. In data set [12], the “apoptosis in mouse embryonic fibroblasts” value was “inhibits doxorubicin-induced apoptosis in mouse embryonic fibroblasts”. Moreover, the nuclear fragmentation entry in [13] was “Nuclear fragmentation was also inhibited”. Moreover, in data set [14], the “heart function (ejection fraction) in doxorubicin-treated mice” value is on record as “therapeutically effective”. Also, in data set [1] (setting [16]), the IC50 came to 11 µM. The AUC(0-t) in data set [15] (parameter and unit are drawings, read-out: AUClast: area under the curve, calculated to the last observable time point) is 390 ± 42.7 ng·h/mL. The MRT last in data set [15] (parameter and unit are drawings, read-out: MRTlast: mean residence time, calculated to the last observable time point) was 2.15 h. Besides, in data set [15] (parameter and unit are drawings, read-out: tmax: time of maximum plasma concentration), the Tmax worked out at 0 h. Further, the Vd in data set [15] (parameter is a drawing, read-out: Vss: steady state volume of distribution) stood at 10.5 L/kg. Besides, in data set [15] (unit is a drawing), the AUC(0-inf) came out at 524 ng·h/mL, the highest level (Cmax) was 318 ng/mL, the clearance was 31.8 mL/min/kg and the half-life is 5.04 h. In addition, the C0 in data set [15] (unit is a drawing, read-out: C0: maximum plasma concentration extrapolated to t=0) is 318 ng/mL. Moreover, in data set [8], the “inhibition of hypoxia-induced neonatal cardiomyocyte death” value is listed as “potently inhibits primary neonatal cardiomyocyte death induced by hypoxia”.

A word on the half-life: it is how long it takes for the measured level to halve. The term fraction unbound denotes the share of the substance not bound to proteins or other matrix. Read a low fraction unbound as little free substance. For orientation: AUC(0-inf) means total exposure, with the tail of the curve extrapolated. Lower therefore signals less exposure. A word on the Cmax: it is the highest concentration seen after dosing. In general, clearance refers to the volume of plasma or blood freed of the substance per unit of time. Read a high clearance as a high capacity for elimination.
